Experimental data published in ChEMBL document CHEMBL2311245, “Hypoxia-selective O6-alkylguanine-DNA alkyltransferase inhibitors: design, synthesis, and evaluation of 6-(benzyloxy)-2-(aryldiazenyl)-9H-purines as prodrugs of O6-benzylguanine” (J Med Chem, 2013).
Active and inactive are the calls of the source. No cut-off for these calls is given here.

Tests used:
Assay type in all cases: cell-based
[1] = biological target: T1, Methylated-DNA--protein-cysteine methyltransferase (Homo sapiens) (UniProt P16455); assay: Inhibition of AGT in human DU145 cells assessed as potentiation of laromustine-induced cytotoxicity under normoxic condition up to 50 uM treated 4 hrs prior to laromustine treatment measured after 24 hrs by clonogenic assay; conditions: DU-145
T1 sequence (whole entry): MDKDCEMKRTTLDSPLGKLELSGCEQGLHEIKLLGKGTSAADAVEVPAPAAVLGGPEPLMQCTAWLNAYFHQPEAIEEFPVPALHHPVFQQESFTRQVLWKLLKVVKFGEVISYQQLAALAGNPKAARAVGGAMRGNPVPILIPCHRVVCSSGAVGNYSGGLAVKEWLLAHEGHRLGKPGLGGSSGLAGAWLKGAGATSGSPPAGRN

[2] = biological target: T1, Methylated-DNA--protein-cysteine methyltransferase (Homo sapiens); assay: Inhibition of AGT in human DU145 cells assessed as potentiation of laromustine-induced cytotoxicity under hypoxic condition up to 50 uM treated 4 hrs prior to laromustine treatment measured after 24 hrs by clonogenic assay; conditions: DU-145
[3] = biological target: T1, Methylated-DNA--protein-cysteine methyltransferase (Homo sapiens); assay: Inhibition of AGT in human DU145 cells assessed as potentiation of laromustine-induced cytotoxicity under hypoxic condition at >10 uM treated 4 hrs prior to laromustine treatment measured after 24 hrs by clonogenic assay; conditions: DU-145
DU-145 = assay: Prodrug activation in human DU145 cells assessed as O6-benzylguanine formation under normoxic condition at 50 uM over 3 hrs by HPLC analysis; conditions: du-145, 3 h
EMT6 = assay: Prodrug activation in mouse EMT6 cells assessed as O6-benzylguanine formation under normoxic condition at 50 uM after 3 hrs by HPLC analysis; conditions: emt6, 3 h
[4] = biological target: T1, Methylated-DNA--protein-cysteine methyltransferase (Homo sapiens); assay: Inhibition of AGT in human DU145 cells assessed as potentiation of laromustine-induced cytotoxicity under normoxic condition up to 10 uM treated 4 hrs prior to laromustine treatment measured after 24 hrs by clonogenic assay; conditions: DU-145
[5] = biological target: T1, Methylated-DNA--protein-cysteine methyltransferase (Homo sapiens); assay: Inhibition of AGT in human DU145 cells assessed as potentiation of laromustine-induced cytotoxicity under hypoxic condition up to 10 uM treated 4 hrs prior to laromustine treatment measured after 24 hrs by clonogenic assay; conditions: DU-145

CN1CCN(c2ccc(/N=N/c3nc(OCc4ccccc4)c4nc[nH]c4n3)cc2)CC1
inhibition [1]: inactive | inhibition [2]: Active

CN(C)c1ccc(/N=N/c2nc(OCc3ccccc3)c3nc[nH]c3n2)cc1
inhibition [3]: Active | Drug metabolism (DU-145): Not Active | Drug metabolism (EMT6): Not Active | inhibition [4]: inactive | inhibition [5]: Active
